# From patent US6984645B2, “Dual inhibitors of adipocyte fatty acid binding protein and keratinocyte fatty acid binding protein” (Bristol-Myers Squibb Company, priority 2001, dated 2006)
# Counter-ions that a name gives are not always drawn.
row,SMILES,melting point
1,"O=C(O)c1cccc(OCc2ccc(Cl)cc2Cl)c1OCc1ccc(Cl)cc1Cl [Example 346, 2,3-Bis[(2,4-dichlorophenyl)methoxy]benzoic acid]",168 to 169 °C
2,"Cc1cccc(COc2c(OCc3ccccc3Cl)cccc2C(=O)O)c1 [Example 357, 3-[(2-Chlorophenyl)methoxy]-2-[(3-methylphenyl)methoxy]benzoic acid]",107 to 109 °C
3,"O=C(O)c1cccc(OCc2cc(C(F)(F)F)cc(C(F)(F)F)c2)c1OCc1cc(C(F)(F)F)cc(C(F)(F)F)c1 [Example 350, 2,3-Bis[[3,5-bis(trifluoromethyl)phenyl]methoxy]benzoic acid]",156 to 158 °C
4,"CO/N=C(/C(=O)O)c1cccc(OCc2ccccc2Cl)c1OCc1ccccc1Cl (single isomer, unassigned) [Example 340, (E or Z)-2,3-Bis[(2-chlorophenyl)methoxy]-α-(methoxyimino)benzeneacetic acid]",140 to 141 °C
5,"O=C(O)C(O)c1cccc(OCc2ccccc2Cl)c1OCc1ccncc1 (stereo not drawn) [Example 344, 3-[(2-Chlorophenyl)methoxy]-α-hydroxy-2-(4-pyridinylmethoxy)benzeneacetic acid]",181 to 183 °C
6,"O=C(Nc1cccc(C(=O)O)c1OCc1ccccc1Cl)c1ccccc1Cl [Example 392, 3-[(2-Chlorobenzoyl)amino]-2-[(2-chlorophenyl)methoxy]benzoic acid]",182 to 183 °C
7,"Cc1ccc(C)c(COc2cccc(C(=O)O)c2OCc2cc(C)ccc2C)c1 [Example 351, 2,3-Bis[(2,5-dimethylphenyl)methoxy]benzoic acid]",114 to 116 °C
8,"O=C(O)c1cccc(OCc2ccccc2Cl)c1OCc1cccnc1Cl [Example 366, 3-[(2-Chlorophenyl)methoxy]-2-[(2-chloro-3-pyridinyl)methoxy)benzoic acid]",183 to 184 °C
9,O=C(O)c1cccc(OCc2ccccc2Cl)c1OCc1ccccn1 [Example 363],168 to 170 °C
10,"O=C(O)C(=O)c1cccc(OCc2ccccc2Cl)c1OCc1ccccc1Cl [Example 26, 2,3-Bis[(2-chlorophenyl)methoxy]-α-oxobenzeneacetic acid]",116 to 118 °C
11,"O=C(O)c1cccc(COc2ccccc2Cl)c1COc1ccccc1Cl [Example 9, 2,3-Bis[(2-chlorophenoxy)methyl]benzoic acid]",172 to 174 °C
12,"COc1ccccc1COc1c(OCc2ccccc2Cl)cccc1C(=O)O [Example 362, 3-[(2-Chlorophenyl)methoxy]-2-[(2-methoxyphenyl)methoxy]benzoic acid]",110 to 112 °C
13,"O=C(O)c1cccc(OCc2ccccc2Cl)c1OCc1ccc(OCc2ccccc2)cc1 [Example 360, 3-[(2-Chlorophenyl)methoxy]-2-[[4-(phenylmethoxy)phenyl]methoxy]benzoic acid]",107 to 109 °C
14,"O=C(O)C(F)c1cccc(OCc2ccccc2Cl)c1OCc1ccccc1Cl (stereo not drawn) [Example 24, 2,3-Bis[(2-chlorophenyl)methoxy]-α-fluorobenzeneacetic acid]",92 to 94 °C
15,"O=C(Nc1c(OCc2ccc(Cl)cc2Cl)cccc1C(=O)O)c1ccccc1 [Example 387, 2-(Benzoylamino)-3-[(2,4-dichlorophenyl)methoxy]benzoic acid]",182 to 184 °C
16,"O=C(Nc1c(OCc2ccccc2)cccc1C(=O)O)c1ccccc1 [Example 375, 2-(Benzoylamino)-3-(phenylmethoxy)benzoic acid]",167 to 168 °C
17,"O=C(O)c1cccc(COc2ccccc2Cl)c1OCc1ccccc1Cl [Example 10, 3-[(2-Chlorophenoxy)methyl]-2-[(2-chlorophenyl)methoxy]benzoic acid]",172 to 174 °C
18,"Cc1cc(C)cc(COc2c(OCc3ccccc3Cl)cccc2C(=O)O)c1 [Example 361, 3-[(2-Chlorophenyl)methoxy]-2-[(3,5-dimethylphenyl)methoxy]benzoic acid]",122 to 123 °C
19,"O=C(O)c1cccc(OCc2ccccc2Cl)c1OCc1cc[n+]([O-])cc1 [Example 369, 3-[(2-Chlorophenyl)methoxy]-2-[(1-oxido-4-pyridinyl)methoxy]benzoic acid]",186 to 188 °C
20,Cn1c(COc2c(OCc3ccccc3Cl)cccc2C(=O)O)nc2ccccc21 [Example 372],179 to 182 °C
21,"O=C(O)c1cccc(OCc2ccccc2Cl)c1OCc1ccc[n+]([O-])c1Cl [Example 370, 3-[(2-Chlorophenyl)methoxy]-2-[(2-chloro-1-oxido-3-pyridinyl)methoxy]benzoic acid]",145 to 148 °C
22,"O=C(Nc1c(OCc2ccccc2)cccc1C(=O)O)c1cc(Cl)cc(Cl)c1 [Example 382, 2-[(3,5-Dichlorobenzoyl)amino]-3-(phenylmethoxy)benzoic acid]",202 to 204 °C
23,"O=C(O)c1cccc(OCc2ccc(Cl)cc2Cl)c1OCc1ccccc1 [Example 354, 3-[(2,4-Dichlorophenyl)methoxy]-2-(phenylmethoxy)benzoic acid]",151 to 153 °C
24,"O=C(O)C(Cc1cccc(OCc2ccccc2Cl)c1OCc1ccccc1Cl)C(=O)O [Example 7, [[2,3-Bis[(2-chlorophenyl)methoxy]phenyl]methyl]propanedioic acid]",148 to 150 °C (dec.)

row,SMILES,melting point
1,"O=C(O)c1cccc(OCc2cccc(Cl)c2)c1OCc1cccc(Cl)c1 [Example 348, 2,3-Bis[(3-chlorophenyl)methoxy]benzoic acid]",126 to 127 °C
2,"O=C(Nc1c(OCc2ccccc2)cccc1C(=O)O)c1ccc(Cl)cc1Cl [Example 381, 2-[(2,4-Dichlorobenzoyl)amino]-3-(phenylmethoxy)benzoic acid]",208 to 210 °C
3,O=C(O)c1cccc(OCc2ccccc2Cl)c1OCc1cccc(C(F)(F)F)c1 [Example 359],128 to 129 °C
4,Cc1cc(C)cc(COc2cccc(C(=O)O)c2OCc2cc(C)cc(C)c2)c1 [Example 352],117 to 118 °C
5,"O=C(O)c1cc(Br)cc(OCc2ccccc2)c1OCc1ccccc1 [Example 356, 5-Bromo-2,3-bis(phenylmethoxy)benzoic acid]",151 to 153 °C
6,O=C(O)c1cccc(OCc2ccccc2Cl)c1OCc1cccnc1 [Example 365],181 to 182 °C
7,"O=C(O)c1cccc(OCc2ccccc2Cl)c1OCc1cccc(F)c1 [Example 358, 3-[(2-Chlorophenyl)methoxy]-2-[(3-fluorophenyl)methoxy]benzoic acid]",152 to 154 °C
8,"O=C(O)c1cccc(OCc2ccccc2Cl)c1OCc1nc2ccccc2[nH]1 (as salt: hydrochloride) [Example 371, 2-(1H-Benzimidazol-2-ylmethoxy)-3-[(2-chlorophenyl)methoxyl]benzoic acid, monohydrochloride]",197 to 201 °C
9,"O=C(O)C(F)(F)c1cccc(OCc2ccccc2Cl)c1OCc1ccccc1Cl [Example 27, 2,3-Bis[(2-chlorophenyl)methoxy]-α,α-difluorobenzeneacetic acid]",113 to 115 °C
10,"O=C(O)c1cccc(OCc2ccccc2)c1OCc1ccc(Cl)cc1Cl [Example 353, 2-[(2,4-Dichlorophenyl)methoxy]-3-(phenylmethoxy)benzoic acid]",140 to 142 °C
11,O=C(Nc1c(OCc2cc(Cl)ccc2Cl)cccc1C(=O)O)c1ccccc1 [Example 384],187 to 189 °C
12,"O=C(O)c1cccc(OCc2ccccc2Cl)c1OCc1ccccc1Cl [Example 347, 2,3-Bis[(2-chlorophenyl)methoxy]benzoic acid]",156 to 157 °C
13,"O=C(O)c1cccc(OCc2cc(Cl)cc(Cl)c2)c1OCc1cc(Cl)cc(Cl)c1 [Example 345, 2,3-Bis[(3,5-dichlorophenyl)methoxy]benzoic acid]",219 to 220 °C
14,"O=C(O)c1cccc(OCc2ccc(Cl)cc2)c1OCc1ccc(Cl)cc1 [Example 349, 2,3-Bis[(4-chlorophenyl)methoxy]benzoic acid]",174 to 175 °C
15,"O=C(O)c1cccc(OCc2ccccc2Cl)c1OCc1cccc[n+]1[O-] [Example 367, 3-[(2-Chlorophenyl)methoxy]-2-[(1-oxido-2-pyridinyl)methoxy]benzoic acid]",189 to 191 °C
16,"CO/N=C(/C(=O)O)c1cccc(OCc2ccccc2Cl)c1OCc1ccccc1Cl (single isomer, unassigned) [Example 341, (E or Z)-2,3-Bis[(2-chlorophenyl)methoxy]-α-(methoxyimino)benzeneacetic acid]",97 to 99 °C
17,O=C(O)c1cccc(OCc2ccccc2Cl)c1OCc1ccc[n+]([O-])c1,177 to 179 °C
18,"O=C(O)c1cc(Br)cc(OCc2ccccc2Cl)c1OCc1ccccc1Cl [Example 355, 5-Bromo-2,3-bis[(2-chlorophenyl)methoxy]benzoic acid]",186 to 187 °C
19,"O=C(O)Cc1cccc(OCc2ccccc2Cl)c1OCc1ccccc1Cl [Example 5, 2,3-Bis[(2-chlorophenyl)methoxy]benzeneacetic acid]",105 to 107 °C
20,O=C(O)c1cccc(OCc2ccccc2Cl)c1OCc1ccncc1 [Example 364],157 to 159 °C
21,O=C(Nc1c(OCc2c(Cl)cccc2Cl)cccc1C(=O)O)c1ccccc1 [Example 383],145 to 147 °C
22,"O=C(O)/C=C/c1cccc(OCc2ccccc2Cl)c1OCc1ccccc1Cl [Example 4, 2-(E)-3-[2,3-Bis[(2-chlorophenyl)methoxy]phenyl]-2-propenoic acid]",187 to 189 °C
23,"O=C(O)c1c(Br)ccc(OCc2ccccc2)c1OCc1ccccc1 [Example 374, 6-Bromo-2,3-bis(phenylmethoxy)benzoic acid]",164 to 166 °C
24,"O=C(O)c1c(Br)ccc(OCc2ccccc2Cl)c1OCc1ccccc1Cl [Example 373, 6-Bromo-2,3-bis[(2-chlorophenyl)methoxy]benzoic acid]",156 to 158 °C
